From EP0318620A1, “Herbicidal sulfonamides” (E.I. DU PONT DE NEMOURS AND COMPANY, priority 1987, dated 1989)

How the values were obtained:
cotton = experiment: Test B pan test in Sassafras sandy loam soil, pre- and postemergence; assay type: in vivo, Gossypium hirsutum; conditions: scale 0 to 100
Text: (§1) Three round pans (25 cm diameter by 12.5 cm deep) were filled with Sassafras sandy loam soil. One pan was planted with nutsedge (Cyperus rotundus) tubers, crabgrass (Digitaria sanguinalis), sicklepod (Cassia obtusifolia), jimsonweed (Datura stramonium), velvetleaf (Abutilon theophrasti), lambsquarters (Chenopodim album), rice (Oryza sativa) and teaweed (Sida spinosa). The second pot was planted with green foxtail (Setaria viridis), cocklebur (Xantium pensyivanicum), morningglory (lpomoea hederacea), cotton (Gossypium hirsutum), johnsongrass (Sorghum halepense), barnyardgrass (Echinochloa crusgalli), corn (Zea mays), soybean (Glycine max) and giant foxtail (Setaria faberi). The third pot was planted with wheat (Triticum aestivum), barley (Hordeum vulgare), wild buckwheat (Polgonum convolvulus L.), cheatgrass (Bromus secalinus L.), sugarbeet (Beta vulgaris), wild oats (Avena fatua), viola (Viola arvensis), blackgrass (Alopecurus myosuroides), and rape (Brassica napus). The plants were grown for approximately fourteen days, then sprayed postemergence with the chemicals dissolved in a non-phytotoxic solvent.
(§2) Three round pans (25 cm diameter by 12.5 cm deep) were filled with Sassafras sandy loam soil. One pan was planted with nutsedge tubers, crabgrass, sicklepod, jimsonweed, velvetleaf, lambsquarters, rice and teaweed. The second pot was planted with green foxtail, cocklebur, morningglory, cottom, johnsongrass, . barnyardgrass, corn, soybean and giant foxtail. The third pot was planted with wheat, barley, wild buckwheat, cheatgrass, sugarbeet, wild oat, viola, blackgrass and rape. The three pans were sprayed preemer gence with the chemicals dissolved in a non-phytotoxic solvent.
(§3) Treated plants and controls were maintained in the greenhouse for 24 days, then all rated plants were compared to controls and visually rated for plant response.
(§4) A dash (-) response means no test.

giant foxtail [1] = experiment: as above; assay type: in vivo, Setaria faberi; conditions: scale 0 to 100
Text: as §1, §2, §3, §4

soybean = experiment: as above; assay type: in vivo, Glycine max; conditions: scale 0 to 100
Text: as §1, §2, §3, §4

giant foxtail [2] = experiment: Test A greenhouse herbicide test, pre- and postemergence; assay type: in vivo, Setaria faberii; conditions: rated after sixteen days
Text: (§5) Seeds of crabgrass (Digitaria spp.), barnyardgrass (Echinochloa crusgalli), cheatgrass (Bromus Secalinus), giant foxtail (Setaria faberii), wild oats (Avena fatua), velvetleaf (Abutilon theophrasti), morningglory (Ipomoea spp. , cocklebur (Xanthium pensylvanicum). sorghum, corn, barley, soybean, sugarbeet, cotton, rice, wheat and purple nutsedge (Cyperus rotundus) tubers were planted and treated preemergence with the test chemicals dissolved in a non-phytotoxic solvent. At the same time, these crop and weed species were treated with a soil/foliage application. At the time of treatment, the plants ranged in height from 2 to 18 cm. Treated plants and controls were maintained in a greenhouse for sixteen days, after which all species were compared to controls and visually rated for response to treatment. The ratings, summarized in Table A, are based on a numerical scale extending from 0 = no injury, to 10 = complete kill. The accompanying descriptive symbols have the following meanings: • B = burn; • C = chlorosis/necrosis; • D = defoliation; • E = emergence inhibition; • G = growth retardation; • H = formative effect; • U = unusual pigmentation; • X = axillary stimulation; • S = albinism; and • 6Y = abscised buds or flowers.

wild oats = experiment: as above; assay type: in vivo, Avena fatua; conditions: PREEMERGENCE; RATE 0.01 KG/HA; rated after sixteen days
Text: as §5

sicklepod = experiment: Test B pan test in Sassafras sandy loam soil, pre- and postemergence; assay type: in vivo, Cassia obtusifolia; conditions: scale 0 to 100
Text: as §1, §2, §3, §4

jimsonweed = experiment: as above; assay type: in vivo, Datura stramonium; conditions: scale 0 to 100
Text: as §1, §2, §3, §4

sugarbeet = experiment: as above; assay type: in vivo, Beta vulgaris; conditions: scale 0 to 100
Text: as §1, §2, §3, §4

crabgrass [3] = experiment: Test A greenhouse herbicide test, pre- and postemergence; assay type: in vivo, Digitaria spp.; conditions: PREEMERGENCE; RATE 0.01 KG/HA; rated after sixteen days
Text: as §5

cocklebur = experiment: as above; assay type: in vivo, Xanthium pensylvanicum; conditions: POSTEMERGENCE, rated after sixteen days
Text: as §5

teaweed = experiment: Test B pan test in Sassafras sandy loam soil, pre- and postemergence; assay type: in vivo, Sida spinosa; conditions: scale 0 to 100
Text: as §1, §2, §3, §4

crabgrass [4] = experiment: as above; assay type: in vivo, Digitaria sanguinalis; conditions: scale 0 to 100
Text: as §1, §2, §3, §4

rice = experiment: Test A greenhouse herbicide test, pre- and postemergence; assay type: in vivo; conditions: rated after sixteen days
Text: as §5

wild buckwheat = experiment: Test B pan test in Sassafras sandy loam soil, pre- and postemergence; assay type: in vivo, Polgonum convolvulus L.; conditions: scale 0 to 100
Text: as §1, §2, §3, §4

corn = experiment: as above; assay type: in vivo, Zea mays; conditions: scale 0 to 100
Text: as §1, §2, §3, §4

CCOC(=O)c1c(CC#N)cccc1S(=O)(=O)NC(=O)Nc1nc(OC)cc(OC)n1 [Compound 3, 2-(cyanomethyl)-6 [[(4,6-dimethoxypyrimidin-2-yl)-aminocarbonyl]aminosulfonyl]benzoic acid, ethyl ester]
20: SOYBEAN response rating (soybean; PREEMERGENCE, RATE 0016 G/HA)
50: CASSIA response rating (sicklepod; POSTEMERGENCE, RATE 0004 G/HA) | SUGAR BEETS response rating (sugarbeet; PREEMERGENCE, RATE 0004 G/HA) | TEAWEED response rating (teaweed; POSTEMERGENCE, RATE 0004 G/HA) | CRABGRASS response rating (crabgrass [4]; POSTEMERGENCE, RATE 0016 G/HA) | WILD BUCKWHEAT response rating (wild buckwheat; PREEMERGENCE, RATE 0004 G/HA)
4G: CRABGRASS visual rating of response to treatment (crabgrass [3])
9C: GIANT FOXTAIL visual rating of response to treatment (giant foxtail [2]; POSTEMERGENCE, RATE 0.01 KG/HA) | RICE visual rating of response to treatment (rice; POSTEMERGENCE, RATE 0.01 KG/HA) | RICE visual rating of response to treatment (rice; POSTEMERGENCE, RATE 0.05 KG/HA)
3G: WILD OATS visual rating of response to treatment (wild oats) | RICE visual rating of response to treatment (rice; PREEMERGENCE, RATE 0.01 KG/HA)
40: SOYBEAN response rating (soybean; PREEMERGENCE, RATE 0062 G/HA)
60: GIANT FOXTAIL response rating (giant foxtail [1]; PREEMERGENCE, RATE 0016 G/HA) | JIMSONWEED response rating (jimsonweed; POSTEMERGENCE, RATE 0004 G/HA) | WILD BUCKWHEAT response rating (wild buckwheat; POSTEMERGENCE, RATE 0004 G/HA) | CORN response rating (corn; PREEMERGENCE, RATE 0062 G/HA)
100: COTTON response rating (cotton; POSTEMERGENCE, RATE 0004 G/HA) | COTTON response rating (cotton; POSTEMERGENCE, RATE 0016 G/HA) | COTTON response rating (cotton; POSTEMERGENCE, RATE 0062 G/HA) | GIANT FOXTAIL response rating (giant foxtail [1]; POSTEMERGENCE, RATE 0004 G/HA) | GIANT FOXTAIL response rating (giant foxtail [1]; POSTEMERGENCE, RATE 0016 G/HA) | GIANT FOXTAIL response rating (giant foxtail [1]; POSTEMERGENCE, RATE 0062 G/HA) | GIANT FOXTAIL response rating (giant foxtail [1]; PREEMERGENCE, RATE 0062 G/HA) | SOYBEAN response rating (soybean; POSTEMERGENCE, RATE 0004 G/HA) | SOYBEAN response rating (soybean; POSTEMERGENCE, RATE 0016 G/HA) | SOYBEAN response rating (soybean; POSTEMERGENCE, RATE 0062 G/HA) | JIMSONWEED response rating (jimsonweed; POSTEMERGENCE, RATE 0016 G/HA) | JIMSONWEED response rating (jimsonweed; POSTEMERGENCE, RATE 0062 G/HA) | SUGAR BEETS response rating (sugarbeet; POSTEMERGENCE, RATE 0004 G/HA) | SUGAR BEETS response rating (sugarbeet; POSTEMERGENCE, RATE 0016 G/HA) | SUGAR BEETS response rating (sugarbeet; POSTEMERGENCE, RATE 0062 G/HA) | TEAWEED response rating (teaweed; POSTEMERGENCE, RATE 0062 G/HA) | WILD BUCKWHEAT response rating (wild buckwheat; POSTEMERGENCE, RATE 0062 G/HA) | CORN response rating (corn; POSTEMERGENCE, RATE 0004 G/HA) | CORN response rating (corn; POSTEMERGENCE, RATE 0016 G/HA) | CORN response rating (corn; POSTEMERGENCE, RATE 0062 G/HA)
10C: GIANT FOXTAIL visual rating of response to treatment (giant foxtail [2]; POSTEMERGENCE, RATE 0.05 KG/HA) | COCKLEBUR visual rating of response to treatment (cocklebur; RATE 0.01 KG/HA) | COCKLEBUR visual rating of response to treatment (cocklebur; RATE 0.05 KG/HA)
0: COTTON response rating (cotton; PREEMERGENCE, RATE 0004 G/HA) | COTTON response rating (cotton; PREEMERGENCE, RATE 0016 G/HA) | SOYBEAN response rating (soybean; PREEMERGENCE, RATE 0004 G/HA) | CASSIA response rating (sicklepod; PREEMERGENCE, RATE 0004 G/HA) | CASSIA response rating (sicklepod; PREEMERGENCE, RATE 0016 G/HA) | CASSIA response rating (sicklepod; PREEMERGENCE, RATE 0062 G/HA) | JIMSONWEED response rating (jimsonweed; PREEMERGENCE, RATE 0004 G/HA) | JIMSONWEED response rating (jimsonweed; PREEMERGENCE, RATE 0016 G/HA) | TEAWEED response rating (teaweed; PREEMERGENCE, RATE 0004 G/HA) | TEAWEED response rating (teaweed; PREEMERGENCE, RATE 0016 G/HA) | TEAWEED response rating (teaweed; PREEMERGENCE, RATE 0062 G/HA) | CRABGRASS response rating (crabgrass [4]; POSTEMERGENCE, RATE 0001 G/HA) | CRABGRASS response rating (crabgrass [4]; PREEMERGENCE, RATE 0004 G/HA) | CORN response rating (corn; PREEMERGENCE, RATE 0004 G/HA)
5G: GIANT FOXTAIL visual rating of response to treatment (giant foxtail [2]; PREEMERGENCE, RATE 0.01 KG/HA)
30: COTTON response rating (cotton; POSTEMERGENCE, RATE 0001 G/HA) | COTTON response rating (cotton; PREEMERGENCE, RATE 0062 G/HA) | GIANT FOXTAIL response rating (giant foxtail [1]; PREEMERGENCE, RATE 0004 G/HA) | CASSIA response rating (sicklepod; POSTEMERGENCE, RATE 0001 G/HA) | JIMSONWEED response rating (jimsonweed; POSTEMERGENCE, RATE 0001 G/HA) | JIMSONWEED response rating (jimsonweed; PREEMERGENCE, RATE 0062 G/HA) | TEAWEED response rating (teaweed; POSTEMERGENCE, RATE 0001 G/HA) | CRABGRASS response rating (crabgrass [4]; POSTEMERGENCE, RATE 0004 G/HA) | CRABGRASS response rating (crabgrass [4]; PREEMERGENCE, RATE 0016 G/HA) | WILD BUCKWHEAT response rating (wild buckwheat; POSTEMERGENCE, RATE 0001 G/HA) | CORN response rating (corn; PREEMERGENCE, RATE 0016 G/HA)
70: CASSIA response rating (sicklepod; POSTEMERGENCE, RATE 0016 G/HA) | SUGAR BEETS response rating (sugarbeet; POSTEMERGENCE, RATE 0001 G/HA) | SUGAR BEETS response rating (sugarbeet; PREEMERGENCE, RATE 0016 G/HA) | TEAWEED response rating (teaweed; POSTEMERGENCE, RATE 0016 G/HA) | CRABGRASS response rating (crabgrass [4]; POSTEMERGENCE, RATE 0062 G/HA) | CRABGRASS response rating (crabgrass [4]; PREEMERGENCE, RATE 0062 G/HA) | WILD BUCKWHEAT response rating (wild buckwheat; PREEMERGENCE, RATE 0016 G/HA)
90: GIANT FOXTAIL response rating (giant foxtail [1]; POSTEMERGENCE, RATE 0001 G/HA) | SOYBEAN response rating (soybean; POSTEMERGENCE, RATE 0001 G/HA) | CASSIA response rating (sicklepod; POSTEMERGENCE, RATE 0062 G/HA) | SUGAR BEETS response rating (sugarbeet; PREEMERGENCE, RATE 0062 G/HA) | WILD BUCKWHEAT response rating (wild buckwheat; POSTEMERGENCE, RATE 0016 G/HA) | WILD BUCKWHEAT response rating (wild buckwheat; PREEMERGENCE, RATE 0062 G/HA) | CORN response rating (corn; POSTEMERGENCE, RATE 0001 G/HA)
